Several values for one entry are separate records, joined by “and”; a condition that tells them apart may be missing. Identical values can stand only once. Like-named read-outs stand apart in the source and are kept apart here. Numbered stars: 1 amine (or outer) side, 2 acyl side, 3 side chain; on linkers, the order of the positions; unused ones are H or OH. Square brackets hold non-standard residues; d marks the D form. Peptide text beside a SMILES is read from it. * marks the point of attachment. ξ: configuration not given here. Gly(1-amidinopiperidin-4-yl) = N=C(N)N1CCC([C@H](N)C(=O)O)CC1; X1 = CC(C)c1oc([C@H](CO)N[*:1])nc1C(=O)[*:2]; Pro(3R-Ph) = O=C(O)[C@H]1NCC[C@@H]1c1ccccc1; Met(O) = CS(=O)CC[C@H](N)C(=O)O; Tic = O=C(O)[C@@H]1Cc2ccccc2CN1; Cha = N[C@@H](CC1CCCCC1)C(=O)O; NHPhenethyl = c1ccc(CCN*)cc1; NMe(benzyl) = CN(Cc1ccccc1)*; ξDisc = O=C(O)C1NCc2ccccc21; Nle = CCCC[C@H](N)C(=O)O; X2 = OCCOCCN(Cc1ccccc1)*; NHBn = c1ccc(CN*)cc1; X3 = OCCOCCN*
Legend:
[1] = Stability of compounds in mouse blood plasma; assay type: in vitro ADME
Method in brief: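 Compounds at 5 μM final in rat, mouse or human plasma, incubated at 37 °C and sampled at 0, 6 and 24 h. Proteins precipitated with acetonitrile and the supernatant dried and reconstituted in 50% acetonitrile/0.1% TFA. PBS controls run for unstable compounds.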

[2] = biological target: DR4Dw4 (DRA1*0101 DRB1*0401) (Homo sapiens, UniProt P01903+P01911, A100K/A169T/F76Y/I96L/K127E/L162R/M171V/N62H/P40V/Q125Y/R42H/S133A/S149N/S66Y/V115G/V209L/W38E); test: Competitive binding to MHC-II protein DR4Dw4
Method in brief: (§1)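 Each MHC-II allele incubated with compound 16 hours at room temperature in duplicate; controls lacked compound, or both compound and MHC-II. Complexes captured 2 h at 4 °C, bound biotinylated peptide detected via europium-streptavidin and DELFIA enhancement, time-resolved fluorescence read at ex 340/em 613 (615) nm.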

[3] = biological target: T1, LG2 (DR1: DRA1*0101 DRB1*0101) cells (Homo sapiens, UniProt P01903+P01911, A100R/D57E/F55L/F60I/F76Y/I96L/L162R/M171V/P40L/Q125E/R42F/V115G/Y59C); test: Competitive binding to MHC II proteins expressed on LG2 cells; assay type: cell-based; conditions: for IC50: LG2 (0101)
T1 construct: MHC II Proteins Expressed on PRIESS and LG2 Cells; endogenous in cells; host or cells: LG2 cells
Experimental: For use in the binding assay the cells were re-suspended in medium containing 1% FCS at a density of 2.5×10^6 cells/ml.
The assay was performed in sterile 96 well polystyrene microtiter plates. A 10 fold dilution series of compounds (16 nM-1615 μM) in 1% FCS was prepared from 5 or 10 mM compound stock solutions in 10% DMSO/water. 50 μl of each compound dilution were added in duplicates to 50 μl of a 16 μM solution of indicator peptide in 1% FCS. Cell binding was initiated by adding 100 μl of 2.5×10^6 cells/ml 1% FCS to each well. Controls were included containing the DMSO concentration present in the solution with the highest compound concentration. The cells were incubated at 37° C., 6% CO2. After 4 hours the cells were washed with 200 μl PBS and lysed in 200 μl lysis buffer (50 mM sodium phosphate, 150 mM sodium chloride, 1% (w/v) NP-40, 25 mM iodoacetamide, 1 mM PMSF, 3.1% protease inhibitor cocktail: 0.32 g/l of Chymostatin, Antipain, Pepstatin A, Soybean trypsin inhibitor and Leupeptin each, pH 7.5) for 10 min.
After washing with PBS, 190 μl of cell lysate were transferred to the appropriate wells of the capture plate and incubated for 2 h at 4° C. The wells were washed six times with 200 μl/well cooled (4 to 8° C.) of 1×DELFIA wash (Wallac-ADL-GmbH, Freiburg), incubated with 100 μl of cooled Europium-streptavidin conjugate (Wallac-ADL-GmbH, Freiburg; diluted 1/1000 with DELFIA assay buffer) for 30 minutes at 4° C., again washed six times with cooled 1×DELFIA wash and, finally, incubated with 200 μl cooled DELFIA enhancement solution (Wallac-ADL-GmbH, Freiburg) for one hour at room temperature before reading the time-resolved europium fluorescence at λex Eu^3+: 340 nm and λem Eu^3+: 613 (615) nm (Wallac Victor^2 1420 Multilabel Counter, Wallac-ADL-GmbH, Freiburg).

[4] = biological target: Cathepsin D (EC 3.4.23.5 from bovine spleen) (Bos taurus, UniProt P80209)
[5] = biological target: DR1 (DRA1*0101 DRB1*0101) (Homo sapiens, UniProt P01903+P01911, A100R/D57E/F55L/F60I/F76Y/I96L/L162R/M171V/P40L/Q125E/R42F/V115G/Y59C); test: Competitive binding to MHC-II protein DR1
Method in brief: as §1

[6] = Cell binding IC50 (uM) LG2 (0101)
[7] = Protein binding IC50 (nM) 0101, 0101

Row | Compound | Stability (Arbitrary units) Mouse 6 h [1] | Stability (Arbitrary units) Mouse 24 h [1] | IC50 [2] | IC50 [3, 6] | binding to MHC class II protein expressed on the surface of LG2 cells ([3]; compared to the Arg-containing equivalent) | Stability (Arbitrary units) Cath D 4 h [4] | IC50 [5, 7] | IC50 ([2]; read-out: Protein binding IC50 (nM) 0401, 0401) | IC50 ([3]; read-out: Cell binding IC50 (uM) LG2 (0101)) | IC50 ([5]; read-out: Protein binding IC50 (nM) 0101, 0101)
1 | CC(=O)N[C@@H](CC1CCCCC1)C(=O)N[C@H](C(=O)N1Cc2ccccc2C[C@H]1C(=O)N[C@@H](CC[S+](C)[O-])C(=O)N1CC[C@H](c2ccccc2)[C@H]1C(=O)N[C@@H](CO)c1nc(C(=O)N(C)C)c(C(C)C)o1)C1CCN(C(=N)N)CC1 (stereo partly drawn) [Compound P47, Ac-Cha-Gpg-Tic-Met(O)-βPhPro-[S(oxaz)L]-NMe2] (Ac-[Cha][Gly(1-amidinopiperidin-4-yl)][Tic][Met(O)][Pro(3R-Ph)][X1]-NMe2) | 126 Arbitrary units | 111 Arbitrary units | 180 nM | 4.6 µM | Improved binding | 99 Arbitrary units | 330 nM | – | – | –
2 | CSCC[C@H](NC(=O)[C@@H]1Cc2ccccc2CN1C(=O)[C@H](CCCNC(=N)N)NC(=O)[C@H](CC1CCCCC1)NC(C)=O)C(N)=O [Compound P1, Ac-Cha-Arg-Tic-Met-NH2] (Ac-[Cha]R[Tic]M-NH2) | – | 5 Arbitrary units | 1600 nM | 8.8 µM and 6.8 µM | – | 102 Arbitrary units | 260 nM | – | – | –
3 | CCCC[C@H](NC(=O)[C@@H]1Cc2ccccc2CN1C(=O)[C@@H](NC(=O)[C@H](CC1CCCCC1)NC(C)=O)C1CCN(C(=N)N)CC1)C(=O)N1CC[C@H](c2ccccc2)[C@H]1C(=O)N[C@@H](CO)c1nc(C(=O)N(C)C)c(C(C)C)o1 [Compound P53, Ac-Cha-Gpg-Tic-Nle-βPhPro-[S(oxaz)L]-NMe2] (Ac-[Cha][Gly(1-amidinopiperidin-4-yl)][Tic][Nle][Pro(3R-Ph)][X1]-NMe2) | 117 Arbitrary units | 115 Arbitrary units | 410 nM | 3.5 µM | – | 99 Arbitrary units | 340 nM | – | – | –
4 | CCCC[C@H](NC(=O)[C@@H]1Cc2ccccc2CN1C(=O)[C@H](CCCNC(=N)N)NC(=O)[C@H](CC1CCCCC1)NC(C)=O)C(=O)N1CC[C@H](c2ccccc2)[C@H]1C(=O)N[C@@H](CO)c1nc(C(=O)N(C)C)c(C(C)C)o1 [Compound P51, Ac-Cha-Arg-Tic-Nle-βPhPro-[S(oxaz)L]-NMe2] (Ac-[Cha]R[Tic][Nle][Pro(3R-Ph)][X1]-NMe2) | – | 136 Arbitrary units | 670 nM | 3 µM | – | 103 Arbitrary units | 400 nM | – | – | –
5 | CCCC[C@H](NC(=O)[C@@H]1Cc2ccccc2CN1C(=O)[C@@H](NC(=O)[C@H](CC1CCCCC1)NC(C)=O)C1CCN(C(=N)N)CC1)C(=O)NCCOCCO [Compound P70, Ac-Cha-Gpg-Tic-Nle-N(H)CH2CH2OCH2CH2OH] (Ac-[Cha][Gly(1-amidinopiperidin-4-yl)][Tic][Nle]-X3) | 105 Arbitrary units | 82 Arbitrary units | 440 nM | 5.7 µM | – | 112 Arbitrary units | 90 nM | – | – | –
6 | CSCC[C@H](NC(=O)[C@@H]1Cc2ccccc2CN1C(=O)[C@@H](NC(=O)[C@H](CC1CCCCC1)NC(C)=O)C1CCN(C(=N)N)CC1)C(=O)N(CCOCCO)Cc1ccccc1 [Compound P102, Ac-Cha-Gpg-Tic-Met-N(Bn)CH2CH2OCH2CH2OH] (Ac-[Cha][Gly(1-amidinopiperidin-4-yl)][Tic]M-X2) | 105 Arbitrary units | 101 Arbitrary units | 1700 nM | – | – | 120 Arbitrary units | 580 nM | – | – | –
7 | CCCC[C@H](NC(=O)[C@@H]1Cc2ccccc2CN1C(=O)[C@@H](NC(=O)[C@H](CC1CCCCC1)NC(C)=O)C1CCN(C(=N)N)CC1)C(=O)NCCc1ccccc1 [Compound P69, Ac-Cha-Gpg-Tic-Nle-N(H)CH2CH2Ph] (Ac-[Cha][Gly(1-amidinopiperidin-4-yl)][Tic][Nle]-NHPhenethyl) | 115 Arbitrary units | 85 Arbitrary units | 3600 nM | 6.2 µM and 8.2 µM | – | 100 Arbitrary units | 690 nM | – | – | –
8 | CCCC[C@H](NC(=O)[C@@H]1Cc2ccccc2CN1C(=O)[C@@H](NC(=O)[C@H](CC1CCCCC1)NC(C)=O)C1CCN(C(=N)N)CC1)C(=O)N(CCOCCO)Cc1ccccc1 [Compound P101, Ac-Cha-Gpg-Tic-Nle-N(Bn)CH2CH2OCH2CH2OH] (Ac-[Cha][Gly(1-amidinopiperidin-4-yl)][Tic][Nle]-X2) | 107 Arbitrary units | 94 Arbitrary units | 1500 nM | – | – | 106 Arbitrary units | 500 nM | – | – | –
9 | CCCC[C@H](NC(=O)[C@@H]1Cc2ccccc2CN1C(=O)[C@@H](NC(=O)[C@H](CC1CCCCC1)NC(C)=O)C1CCN(C(=N)N)CC1)C(=O)NCc1ccccc1 [Compound P68, Ac-Cha-Gpg-Tic-Nle-N(H)Bn] (Ac-[Cha][Gly(1-amidinopiperidin-4-yl)][Tic][Nle]-NHBn) | 49 Arbitrary units | 13 Arbitrary units | 2100 nM | 7.2 µM | – | 105 Arbitrary units | 600 nM | – | – | –
10 | CSCC[C@H](NC(=O)C1c2ccccc2CN1C(=O)[C@H](CCCNC(=N)N)NC(=O)[C@H](CC1CCCCC1)NC(C)=O)C(N)=O (stereo partly drawn) [Compound P12-1, Ac-Cha-Arg-Disc-Met-NH2] (Ac-[Cha]R[ξDisc]M-NH2) | 76 Arbitrary units | 38 Arbitrary units | 370 nM | 9.6 µM | – | 103 Arbitrary units | 430 nM | – | – | –
11 | CCCC[C@H](NC(=O)C1c2ccccc2CN1C(=O)[C@@H](NC(=O)[C@H](CC1CCCCC1)NC(C)=O)C1CCN(C(=N)N)CC1)C(=O)N(C)Cc1ccccc1 (single isomer, unassigned) [Compound P76-1, Ac-Cha-Gpg-Disc-Nle-N(Me)Bn] | 93 Arbitrary units | 16 Arbitrary units | – | – | – | 104 Arbitrary units | – | 2300 nM | 4.6 µM | 550 nM
12 | CCCC[C@H](NC(=O)[C@@H]1Cc2ccccc2CN1C(=O)[C@@H](NC(=O)[C@H](CC1CCCCC1)NC(C)=O)C1CCN(C(=N)N)CC1)C(=O)N(C)Cc1ccccc1 [Compound P74, Ac-Cha-Gpg-Tic-Nle-N(Me)Bn] (Ac-[Cha][Gly(1-amidinopiperidin-4-yl)][Tic][Nle]-{NMe(benzyl)}) | – | 97 Arbitrary units | 3400 nM | 6.1 µM | – | 104 Arbitrary units | 360 nM | – | – | –
13 | CCCC[C@H](NC(=O)[C@@H]1Cc2ccccc2CN1C(=O)[C@H](CCCNC(=N)N)NC(=O)[C@H](CC1CCCCC1)NC(C)=O)C(=O)N(C)Cc1ccccc1 [Compound P71, Ac-Cha-Arg-Tic-Nle-N(Me)Bn] (Ac-[Cha]R[Tic][Nle]-{NMe(benzyl)}) | 117 Arbitrary units | – | – | – | – | 104 Arbitrary units | – | – | – | –

From patent publication US7629318B2, “Immunosuppressant compounds, methods and uses related thereto” (priority 2002, dated 2009)
